# Assay results: patent publication US5354748A, “Oral antibacterial compositions and method for the improvement of gastrointestinal absorption of penem or carbapenem antibiotics” (Suntory Limited, priority 1991, dated 1994)
# Where two headings read alike, the source gives them in different places.
# How the values were obtained:
# [1] = Plasma concentration of penem in rats, oral penem with oral N-acetyl-L-cysteine (Example 8); assay type: in vivo, Sprague-Dawley male rats; settings: rat, 57.1 mg/kg, oral 57.1 mg (titer)/Kg
# Experimental: Seven-week-old Sprague-Dawley male rats were orally administered with 57.1 mg (titer)/Kg of sodium (1'R,2"R,5R,6S)-6-(1'-hydroxyethyl)-2-(2"-tetrahydrofuranyl)penem-3-carboxylate 2.5 hydrate. At the same time, N-acetyl-L-cysteine was orally administered at 57.1 mg/Kg. The blood was collected during the period of from 0.1 to 2.0 hours after the administration.
# The concentrations of the free acid of the penem in plasma samples were measured by high performance liquid chromatography (HPLC) to determine the highest concentration in plasma and the area under the plasma concentration: time curve (AUC).
# [2] = Plasma concentration of penem in rats, oral penem with oral glutathione (Example 6); assay type: in vivo, Sprague-Dawley male rats; settings: rat; for AUC at 2 h / Cmax: plasma, po, 57.1 mg/kg, oral 57.1 mg (titer)/Kg
# Experimental: (§1) Seven-week-old Sprague-Dawley male rats were orally administered with 57.1 mg (titer)/Kg of sodium (1'R,2"R,5R,6S)-6-(1'-hydroxyethyl)-2-(2"-tetrahydrofuranyl)penem-3-carboxylate 2.5 hydrate. At the same time, glutathione was orally administered at 57.1 or 5.71 mg/Kg. The blood was collected during the period of from 0.1 to 2.0 hours after the administration. The concentrations of the free acid of the penem in plasma samples were measured by high performance liquid chromatography (HPLC) to determine the highest concentration in plasma and the area under the plasma concentration:time curve (AUC).
# [3] = Plasma concentration and urinary excretion of penem in dogs, capsules with glutathione (Example 7); assay type: in vivo; settings: dog; for AUC at 4 h / Cmax: plasma; for AUC at 4 h / Cmax / dose excreted at 24 h: po, 75 mg, oral capsule 75 mg (titer); for dose excreted at 24 h: urine, read-out: Excretion into urine
# in vivo = assay: in vivo; parameters: species or system Sprague-Dawley male rats; settings: rat, plasma, iv, 11.4 mg/kg, intravenous penem 11.4 mg (titer)/Kg
# Experimental: The blood was collected during the period of from 0.1 to 1.5 hours after the administration. The concentrations of the free acid of the penem in plasma samples were measured by high performance liquid chromatography (HPLC) to determine the area under the plasma concentration:time curve (AUC).
# [4] = Oral absorption of penem in rats with simultaneous administration of cilastatin (Example 3); assay type: in vivo, Sprague-Dawley male rats; settings: rat; for AUC at 2 h / Cmax / bioavailability: plasma, po, 57.1 mg/kg, oral 57.1 mg (titer)/Kg; for bioavailability: read-out: Absorption (Oral Absorption Percentage A)
# Experimental: Those compositions were separately and orally administered to seven-week-old, Sprague-Dawley male rats to give a dose of 57.1 mg (titer)/Kg in terms of the penem carboxylate. The blood was drawn from the femoral artery via a polyethylene catheter over 2.0 hours after the administration.
# [5] = Plasma concentration of penem in rats, oral penem with oral cilastatin (Example 5); assay type: in vivo, Sprague-Dawley male rats; settings: rat; for AUC at 1.5 h / Cmax: plasma, po, 57.1 mg/kg, oral 57.1 mg (titer)/Kg; for Cmax: read-out: Highest concentration in plasma
# Experimental: as §1, with “time, cilastatin” for “time, glutathione”, “at 7.17, 0.717” for “at 57.1”, “or 0.0717” for “or 5.71”, “to 1.5” for “to 2.0”
# [6] = dog, in vivo
# Experimental: Capsules were prepared by filling capsules with a 12.6:1 or 126:1 (by molar ratio) mixture of sodium (1'R,2"R,5R,6S)-6-(1'-hydroxyethyl)-2-(2"-tetrahydrofuranyl)penem-3-carboxylate 2.5 hydrate and cilastatin, namely, with a powder mixture consisting of 75 mg of the penem carboxylate and 7.5 or 0.75 mg of cilastatin per capsule. One of the capsules was orally administered to matured dogs. The blood was collected during the period of from 0.25 to 4 hours after the administration, and the concentrations of the free acid of the penem in plasma samples were measured by HPLC. Further, urine samples were collected until 24 hours after the administration and the concentrations of the free acid of the penem in the urine samples were measured by HPLC.
# The area under the concentration:time curve (AUCpO) Of the compound contained in the plasma after its oral administration was compared to the area under the concentration:time curve (AUCiv) when the penemcarboxylate alone was intravenously administered at 10 mg/Kg and, assuming AUCiv be 100%, the percentage of AUCpo was calculated in accordance with the following formula and recorded as Oral Absorption Percentage A. Similarly, assuming that the percentage of excretion of the above penemcarboxylate into urine (Uiv) upon its intravenous administration at 10 mg/Kg be 100%, Oral Absorption Percentage B was calculated in accordance with the following formula from the percentage of excretion of the penemcarboxylate into urine upon its oral administration (Upo).
# Oral absorption A (%)=AUCpo/AUCiv×10/75×100
# Oral absorption B (%)=Upo/Uiv×100
# [7] = single administration (penem alone)
# [8] = single administration (penem alone), read-out: Highest concentration in plasma
# [9] = penem:glutathione molar ratio 11:1
# [10] = penem:glutathione molar ratio 11:1, read-out: Highest concentration in plasma
smiles,measurement,setting,value
"C[C@@H](O)[C@H]1C(=O)N2C(C(=O)O)=C([C@H]3CCCO3)S[C@H]12 [sodium (1'R,2""R,5R,6S)-6-(1'-hydroxyethyl)-2-(2""-tetrahydrofuranyl)penem-3-carboxylate 2.5 hydrate]",AUC at 2 h,[1]; penem:N-acetyl-L-cysteine molar ratio 0.6:1,5240 ng·h/mL
same,Cmax,"[1]; penem:N-acetyl-L-cysteine molar ratio 0.6:1, read-out: Highest concentration in plasma",6790 ng/mL
same,AUC at 2 h,[1]; [7],2520 ng·h/mL
same,Cmax,[1]; [8],3290 ng/mL
same,Increase of AUC relative to penem alone,"[2]; oral, glutathione 1/11 of the penem",1.2 times
same,AUC at 2 h,[2]; penem:glutathione molar ratio 1.1:1,6160 ng·h/mL
same,Cmax,"[2]; penem:glutathione molar ratio 1.1:1, read-out: Highest concentration in plasma",5840 ng/mL
same,AUC at 2 h,[2]; [9],5540 ng·h/mL
same,Cmax,[2]; [10],5030 ng/mL
same,AUC at 2 h,[2]; [7],4570 ng·h/mL
same,Cmax,[2]; [8],4340 ng/mL
same,Increase of AUC relative to single administration,"[3]; oral, glutathione 1/110 of the penemcarboxylate",1.2 times
same,AUC at 4 h,[3]; [9],25400 ng·h/mL
same,Cmax,[3]; [10],18000 ng/mL
same,AUC at 4 h,[3]; penem:glutathione molar ratio 110:1,21900 ng·h/mL
same,Cmax,"[3]; penem:glutathione molar ratio 110:1, read-out: Highest concentration in plasma",14700 ng/mL
same,dose excreted at 24 h,"[3]; penem:glutathione molar ratio 11:1, up to 24 hours",20.7%
same,dose excreted at 24 h,"[3]; penem:glutathione molar ratio 110:1, up to 24 hours",19.9%
same,AUC at 1.5 h,in vivo; cilastatin 0 (penem alone),7170 ng·h/mL
same,AUC at 1.5 h,in vivo; cilastatin 0.0717 mg/Kg oral,6860 ng·h/mL
same,AUC at 1.5 h,in vivo; cilastatin 0.717 mg/Kg oral,5670 ng·h/mL
same,AUC at 1.5 h,in vivo; cilastatin 7.17 mg/Kg oral,6740 ng·h/mL
same,Increase of oral absorption percentage relative to single administration,"[4]; oral, cilastatin 1/2000 of the penem carboxylate",2.5 times
same,AUC at 2 h,[4]; penem:cilastatin molar ratio 1:1,25900 ng·h/mL
same,Cmax,"[4]; penem:cilastatin molar ratio 1:1, read-out: Highest concentration in plasma",12400 ng/mL
same,bioavailability,"[4]; penem:cilastatin molar ratio 1:1, vs AUCiv",114%
same,AUC at 2 h,[4]; penem:cilastatin molar ratio 10:1,19600 ng·h/mL
same,Cmax,"[4]; penem:cilastatin molar ratio 10:1, read-out: Highest concentration in plasma",12700 ng/mL
same,bioavailability,"[4]; penem:cilastatin molar ratio 10:1, vs AUCiv",86.3%
same,AUC at 2 h,[4]; penem:cilastatin molar ratio 100:1,21100 ng·h/mL
same,Cmax,"[4]; penem:cilastatin molar ratio 100:1, read-out: Highest concentration in plasma",8680 ng/mL
same,bioavailability,"[4]; penem:cilastatin molar ratio 100:1, vs AUCiv",93%
same,AUC at 2 h,[4]; penem:cilastatin molar ratio 300:1,18300 ng·h/mL
same,Cmax,"[4]; penem:cilastatin molar ratio 300:1, read-out: Highest concentration in plasma",7890 ng/mL
same,bioavailability,"[4]; penem:cilastatin molar ratio 300:1, vs AUCiv",80.3%
same,AUC at 2 h,[4]; penem:cilastatin molar ratio 600:1,14900 ng·h/mL
same,Cmax,"[4]; penem:cilastatin molar ratio 600:1, read-out: Highest concentration in plasma",8080 ng/mL
same,bioavailability,"[4]; penem:cilastatin molar ratio 600:1, vs AUCiv",65.6%
same,AUC at 2 h,[4]; penem:cilastatin molar ratio 1000:1,12200 ng·h/mL
same,Cmax,"[4]; penem:cilastatin molar ratio 1000:1, read-out: Highest concentration in plasma",6890 ng/mL
same,bioavailability,"[4]; penem:cilastatin molar ratio 1000:1, vs AUCiv",53.7%
same,AUC at 2 h,[4]; penem:cilastatin molar ratio 2000:1,10900 ng·h/mL
same,Cmax,"[4]; penem:cilastatin molar ratio 2000:1, read-out: Highest concentration in plasma",7690 ng/mL
same,bioavailability,"[4]; penem:cilastatin molar ratio 2000:1, vs AUCiv",48.1%
same,AUC at 2 h,[4]; [7],4420 ng·h/mL
same,Cmax,[4]; [8],4810 ng/mL
same,bioavailability,"[4]; single administration (penem alone), vs AUCiv",19.4%
same,Increase of AUC relative to single administration,"[5]; oral, at each cilastatin dosage (7.17, 0.717, 0.0717 mg/Kg)",2.8-4.8 times
same,AUC at 1.5 h,[5]; cilastatin 0 (penem alone),4420 ng·h/mL
same,Cmax,[5]; cilastatin 0 (penem alone),4810 ng/mL
same,AUC at 1.5 h,[5]; cilastatin 0.0717 mg/Kg oral,12200 ng·h/mL
same,Cmax,[5]; cilastatin 0.0717 mg/Kg oral,6890 ng/mL
same,AUC at 1.5 h,[5]; cilastatin 0.717 mg/Kg oral,21100 ng·h/mL
same,Cmax,[5]; cilastatin 0.717 mg/Kg oral,8680 ng/mL
same,AUC at 1.5 h,[5]; cilastatin 7.17 mg/Kg oral,19600 ng·h/mL
same,Cmax,[5]; cilastatin 7.17 mg/Kg oral,12700 ng/mL
same,Increase of oral absorption percentage (from AUC) relative to penemcarboxylate alone,[6],2.3 times
same,Oral absorption A,[6],33.9%
same,Increase of oral absorption percentage (from excretion into urine) relative to penemcarboxylate alone,[6]; 1440 min,2.3 times
same,Oral absorption B,[6]; 24 h,38.6%
same,Highest concentration in plasma,[6]; po,11.86 µg/mL
same,AUC,"[6]; po, 4 h",18620 ng·h/mL
same,Excretion into urine,"[6]; po, 24 h",16.58%
